Data taken from US8551722B2, “Time-course measurement of enzymatic activity corrected for impacts of disturbances relating to the reaction of the enzyme with a substrate” (Synapse B.V., priority 2008, dated 2013).
Residues, ends and D or L forms follow the SMILES beside them. *: point of attachment. AMC = Cc1cc(=O)oc2cc(N*)ccc12; Cbz = O=C(OCc1ccccc1)*; Bz = O=C(c1ccccc1)*

Experiments:
Assay type in all cases: biochemical
thrombin [1] = molecular target: T1, thrombin (Homo sapiens, UniProt P00734); assay: Km of chromogenic thrombin substrates, obtained in buffer; conditions: obtained in buffer and not in plasma
Excerpt: (NB: The Km values have been obtained in buffer and not in plasma but any value of Km between 0.5 and 2 times the present one would have allowed similar conclusions as to the suitability in thrombingenration experiments)

thrombin [2] = molecular target: T1, thrombin; assay: Diagnostic plot (dOD/dt against OD) of chromogenic substrates at fixed thrombin activity, to judge use in thrombin generation measurement
Method: A suitable chromogenic substrate, i.e. a substrate from which a chromogenic group is split when acted upon by the enzyme to be measured (thrombin, plasmin etc), is added to the reaction mixture. Unless otherwise indicated, for thrombin generation, this mixture consists of four parts of defibrinated plasma, one part of trigger solution and one part of start solution. The reactions can be carried out in a spectrophotometer cuvette, a 96 well plate to be read in a photometric well-plate reader or in a laboratory automaton as e.g. the Cobas Bio and Cobas Fara centrifugal analysers (F. Hoffmann-La Roche, Basel, Switzerland). In short in any device capable of measuring the optical density at 405 nm at 30 s intervals during 10 to 30 min.
Typically 80 μL of defibrinated plasma with 20 μL of rTF without Ca2+ are incubated at 37° C., during a time sufficient for temperature equilibration. Thrombin generation is started by adding 20 μL of a pre-warmed start solution containing 100 mM CaCl2 and 3 mM substrate. After the start of the reaction the optical density at 405 nm is recorded at intervals of maximally 30 s for the time required (≧15 min). Depending upon the measuring device a multiple of the volumes can be used.
This amount is determined by the maximal enzyme potential (η) that to be expected in the experiments. […] In the experiment to obtain the diagnostic plot the enzyme concentration (E) is constant and known. So the enzyme potential (η) is known and can be rendered In the diagnostic plot (curved thin lines in FIG. 8).
In this table η indicates the enzyme potential that is to be expected in the thrombingeneration experiment and limit indicates the limit of enzyme potential that can be measured with the indicated substrate at the indicated concentration.
In FIG. 8 it is seen that straight lines fit through the data over the whole range of ODs measured for three of the four substrates tested. For one (S2238) the straight line fits only up to mOD˜650.

thrombin [3] = molecular target: T1, thrombin; assay: Diagnostic plot of fluorogenic substrates measured in bulk fluid, to judge use in thrombin generation measurement; set-up: from tissue; host or cells: blood plasma of healthy human donors; conditions: 1 mM substrate, judged from the diagnostic plot
Method: The development of fluorescence intensity from aminomethylcoumarine (AMC) is typically measured in a 96-well plate fluorometer (Ascent reader, Thermolabsystems OY, Helsinki Finland) equipped with a 390/460 filter set (excitation/emission) and a dispenser. Immulon 2HB, round-bottom 96-well plates (Dynex) are used. Minimally four readings are done per minute and experiments are carried out in quadruplicate unless otherwise indicated.
To each well, 80 μl of plasma is added. Wells in which TG is measured receive 20 μl of buffer, containing the trigger but no Ca^2+.
Wells in which constant thrombin-like activity is to be measured receive 20 μl of the α2M-thrombin solution at the required concentration as indicated. For PPP, the trigger is 30 pM of recombinant tissue factor (TF) and 24 μM phosphatidyl-serine/phosphatidyl-choline/phosphatidyl-ethanolamine vesicles in Hepes-buffered saline. For PRP the trigger is 20 μl of 3 pM of rTF without added PL.
The plate is placed in the fluorometer and allowed to warm to 37° C. (minimally 15 min). The dispenser of the fluorometer is flushed with warm 100 mM CaCl2 solution, emptied, and then flushed with a prewarmed (37° C.) solution of the substrate in Hepes buffer with 60 g/L bovine serum albumin (FluCa). At the start of the experiment, the instrument dispenses 20 μl of FluCa to all the wells to be measured, registers this as zero time, shakes them for 10 s and starts reading.
A similar approach as that of example 4 can be applied to fluorogenic substrates. The substrates, previously described in ref [35] were, from left to right are BZ-Phe-Val-Arg-AMC, Z-Gly-Pro-Arg-AMC and Z-Pro-Arg-AMC, all tested at a concentration of 1 mM in the setup described under methods.
The scaling factor necessary to convert the arbitrary dF/dt values into nM thrombin is derived from the measurement of the amidolytic activity on a thrombin substrate of the material remaining after thrombin generation is over, as in example 3.

[4] = S 50 μM, E 250 nM (MSC), 300 nM (SQ68)
[5] = S 100 μM, E 0.4 nM (S2238), 250 nM (MSC), 300 nM (SQ68)
[6] = S 150 μM, E 250 nM (MSC), 300 nM (SQ68)

COC(=O)CC(=O)NC(C)(C)C(=O)NC(CCCNC(=N)N)C(=O)Nc1ccc([N+](=O)[O-])cc1.Cl (stereo not drawn) [SQ68, Malonyl-α-aminoisobutyryl-arginine para-nitroanilide methyl ester-HCl]
Km (thrombin [1]): 830 µM
η (enzyme potential to be expected in the thrombin generation experiment) (thrombin [2]; S 50 μM): 1.06 µM·min
limit (limit of enzyme potential that can be measured with the substrate at the indicated concentration) (thrombin [2]; [4]): >30 nM·min
η (enzyme potential to be expected in the thrombin generation experiment) (thrombin [2]; S 100 μM): 1.12 µM·min
limit (limit of enzyme potential that can be measured with the substrate at the indicated concentration) (thrombin [2]; [5]): >30 nM·min
η (enzyme potential to be expected in the thrombin generation experiment) (thrombin [2]; S 150 μM): 1.18 µM·min
limit (limit of enzyme potential that can be measured with the substrate at the indicated concentration) (thrombin [2]; [6]): >30 nM·min

Cc1cc(=O)oc2cc(NC(=O)C(CCCN=C(N)N)NC(=O)C3CCCN3C(=O)OCc3ccccc3)ccc12 (stereo not drawn) [Z-Pro-Arg-AMC] (Cbz-Pro-Arg-{AMC}; configuration not given here)
suitability for the measurement of thrombin generation (fluorogenic substrates) (thrombin [3]): can be used for the measurement of thrombin generation

CC(C)C(NC(=O)OCCS(C)(=O)=O)C(=O)NC(CCCN=C(N)N)C(=O)Nc1ccc([N+](=O)[O-])cc1 (stereo not drawn) [MSC, Msc-Val-Arg-pNA]
Km (thrombin [1]): 882 µM
η (enzyme potential to be expected in the thrombin generation experiment) (thrombin [2]; S 50 μM): 1.06 µM·min
limit (limit of enzyme potential that can be measured with the substrate at the indicated concentration) (thrombin [2]; [4]): >15 nM·min
η (enzyme potential to be expected in the thrombin generation experiment) (thrombin [2]; S 100 μM): 1.11 µM·min
limit (limit of enzyme potential that can be measured with the substrate at the indicated concentration) (thrombin [2]; [5]): >15 nM·min
η (enzyme potential to be expected in the thrombin generation experiment) (thrombin [2]; S 150 μM): 1.17 µM·min
limit (limit of enzyme potential that can be measured with the substrate at the indicated concentration) (thrombin [2]; [6]): >15 nM·min

Cc1cc(=O)oc2cc(NC(=O)[C@H](CCCN=C(N)N)NC(=O)[C@@H](NC(=O)[C@H](Cc3ccccc3)NC(=O)c3ccccc3)C(C)C)ccc12 [BZ-Phe-Val-Arg-AMC] (Bz-Phe-Val-Arg-{AMC})
suitability for the measurement of thrombin generation (fluorogenic substrates) (thrombin [3]): can be used for the measurement of thrombin generation

NC(N)=NCCC[C@H](NC(=O)[C@@H]1CCCCN1C(=O)[C@H](N)Cc1ccccc1)C(=O)Nc1ccc([N+](=O)[O-])cc1 [S2238, HD-Phe-Pip-Arg-pNA]
Km (thrombin [1]): 10 µM
OD up to which the straight line fits the diagnostic plot (thrombin [2]; FIG. 8): ~650 mOD
η (enzyme potential to be expected in the thrombin generation experiment) (thrombin [2]; S 100 μM): 11 µM·min
limit (limit of enzyme potential that can be measured with the substrate at the indicated concentration) (thrombin [2]; [5]): 0.014 nM·min
enzyme potential read from the plot at the OD where the straight line stops fitting (thrombin [2]; at mOD ~650): ~12.5 nM·min
ETP to be measured in the presence of this substrate (thrombin [2]; due to tight binding and inhibition of natural antithrombins): 11000 nM·min
suitability for the measurement of thrombin generation (chromogenic substrates) (thrombin [2]; judged from the diagnostic plot): unsuitable for the measurement of thrombin generation

DEMZ-Gly-Arg-pNA
Km (thrombin [1]): 866 µM
η (enzyme potential to be expected in the thrombin generation experiment) (thrombin [2]; S 500 μM): 1.58 µM·min
limit (limit of enzyme potential that can be measured with the substrate at the indicated concentration) (thrombin [2]; S 500 μM, E 50 nM): >2 nM·min

Cc1cc(=O)oc2cc(NC(=O)[C@H](CCCN=C(N)N)NC(=O)[C@@H]3CCCN3C(=O)CNC(=O)OCc3ccccc3)ccc12 [Z-Gly-Pro-Arg-AMC] (Cbz-Gly-Pro-Arg-{AMC})
suitability for the measurement of thrombin generation (fluorogenic substrates) (thrombin [3]): turnover number that is so high as to have the substrate consumed before thrombin generation is over
